# System: swine adipose tissue
# Assay: inhibition of lipogenesis (lipid synthesis from radioactive glucose) in slices of swine adipose tissue
# Format: cell-based
# Settings: 100 micrograms per milliliter test compound; 37° C., 2 hours; glucose-U^14 C; 300 microunits of insulin; 5% DMSO; triplicate
# Text: The manner in which they cause this effect is not known with certainty; it is believed that they interfere with the synthesis of fatty acids in the tissues. Their effectiveness for this purpose has been ascertained by immersing samples of swine adipose tissue in a liquid medium containing radioactive glucose and the test chemical for a period of time, then isolating the lipid from the treated tissue and determining the up-take of the radioactive carbon by means of scintillation counting techniques. These tests were conducted in swine adipose tissue because in swine, the primary site of lipogenesis--i.e., fatty acid synthesis--appears to be adipose tissue.
# Described in more detail, the tests were conducted according to the following general procedure:
# 150 milligrams of slices of swine adipose tissue were incubated at 37° C. for 2 hours with shaking in 3 milliliters of Krebs-Ringer bicarbonate solution containing one-half of the normal calcium ion concentration, 60 micromoles of glucose, 0.5 micro-Curie of glucose-U^14 C, and 300 microunits of insulin, and 5% dimethyl sulfoxide (DMSO). The test compound was added as a solution or suspension in DMSO and was present as a concentration of 100 micrograms per milliliter of incubation mixture.
# The incubation was terminated by addition of 0.25 milliliter of 1 N sulfuric acid. The resulting mixture was extracted with a total of 25 milliliters of chloroform:methanol (2:1, v/v). The extracts were washed according to Folch et al. (J. Biol. Chem., 226, 497-509, (1957)), air dried, and counted in a liquid scintillation counter with 15 milliliters of counting fluid (two parts toluene containing 0.4% w/v New England Nuclear Omnifluor: 1 part Triton X-100). The tests were conducted in triplicate and were accompanied by control tests in which all ingredients,proportions and conditions were the same except that no test compound was included. From the data obtained were calculated the percent inhibition of lipid synthesis by the test compound. The data obtained are reported as the percent inhibition of lipogenesis compared to the results obtained in the control tests wherein only the test compound was omitted.
row,Structure (SMILES),Percent Inhibition (of lipogenesis compared to control tests) [%]
1,C=CCNC(=O)C1Cc2cc(C3CCCCC3)ccc2O1 (stereo not shown) [Compound 3],43
2,C=CCNC(=O)C1Cc2c(Oc3ccccc3)cccc2O1 (stereo not shown) [Compound 5],77
3,"C=CCNC(=O)C1Cc2cc(-c3ccc(NC(C)=O)cc3)ccc2O1 (stereo not shown) [Compound 7, 5-(4-(Acetylamino)phenyl)-2,3-dihydro-N-(2-propenyl)-2-benzofurancarboxamide]",76
4,C=CCNC(=O)C1Cc2cc(C(C)CC)ccc2O1 (stereo not shown) [Compound 2],66
5,C=CCNC(=O)C1Cc2cc(Cc3ccccc3)ccc2O1 (stereo not shown) [Compound 4],64
6,"C=CCNC(=O)C1Cc2cc(-c3ccc(C(C)O)cc3)ccc2O1 (stereo not shown) [Compound 6, 2,3-Dihydro-5-(4-(1-hydroxyethyl)phenyl)-N-(2-propenyl)-2-benzofurancarboxamide]",40
7,"C=CCNC(=O)C1Cc2cc(-c3ccccc3)ccc2O1 (stereo not shown) [Compound 1, 2,3-dihydro-5-phenyl-N-(2-propenyl)-2-benzofurancarboxamide]",59
